≈ marks a conversion by molar mass, not a printed value.
What was measured:
[1] = Toxicity in brine shrimp; details: artemia salina
Plasmodium falciparum [2] = assay: Antimalarial activity against Plasmodium falciparum 3D7; format: functional, organism-based
Plasmodium berghei [3] = assay: Antimalarial activity against Plasmodium berghei infected in po dosed mouse; format: functional
Plasmodium yoelii [4] = assay: Antimalarial activity against Plasmodium yoelii infected in sc dosed mouse; format: functional
Plasmodium yoelii [5] = assay: Antimalarial activity against Plasmodium yoelii infected in po dosed mouse; format: functional
Plasmodium berghei [6] = assay: Antimalarial activity against Plasmodium berghei infected in sc dosed mouse; format: functional; details: Plasmodium berghei
Plasmodium falciparum [7] = assay: Antimalarial activity against Plasmodium falciparum FcB1 at 10 ng/ml; format: functional
Plasmodium falciparum [8] = assay: Antimalarial activity against Plasmodium falciparum FcB1 at 1 ng/ml; format: functional
Plasmodium falciparum [9] = assay: Antimalarial activity against Plasmodium falciparum FcB1 at 100 ng/ml; format: functional
Plasmodium falciparum [10] = assay: Antimalarial activity against ART-sensitive Plasmodium falciparum NF54; format: functional, organism-based
Plasmodium falciparum [11] = assay: Antimalarial activity against Plasmodium falciparum W2; format: functional, organism-based
Plasmodium falciparum [12] = assay: Antimalarial activity against Plasmodium falciparum D10; format: functional, organism-based
Plasmodium falciparum [13] = assay: Antimalarial activity against ART-resistant Plasmodium falciparum Dd2 harboring R539T mutant; format: functional, organism-based
Plasmodium falciparum [14] = assay: Antimalarial activity against ART-sensitive Plasmodium falciparum W2; format: functional, organism-based
Plasmodium falciparum [15] = assay: Antimalarial activity against ART-sensitive Plasmodium falciparum 3D7; format: functional, organism-based
Plasmodium falciparum [16] = assay: Antimalarial activity against late blood stage Plasmodium falciparum NF54 gametocytes; format: functional, organism-based
Plasmodium falciparum [17] = assay: Antimalarial activity against ART-resistant Plasmodium falciparum NF54 harboring […] mutant; format: functional, organism-based
Plasmodium falciparum [18] = assay: Antimalarial activity against chloroquine-sensitive Plasmodium falciparum NF54 infected in iv dosed mouse; format: functional
Plasmodium falciparum [19] = assay: Antimalarial activity against chloroquine-sensitive Plasmodium falciparum NF54; format: functional, organism-based
Plasmodium falciparum [20] = assay: Antimalarial activity against chloroquine-sensitive Plasmodium falciparum NF54 infected in po dosed mouse; format: functional
Plasmodium berghei [21] = assay: Antimalarial activity against Plasmodium berghei ANKA infected in po dosed mouse; format: functional
Plasmodium berghei [22] = assay: Antimalarial activity against Plasmodium berghei infected in mouse; format: functional; details: Plasmodium berghei
Plasmodium falciparum [23] = assay: Antimalarial activity against Plasmodium falciparum NF54; format: functional, organism-based
Plasmodium falciparum [24] = assay: Antimalarial activity against Plasmodium falciparum K1; format: functional, organism-based

C[C@H]1[C@@H](OC(=O)c2ccc3[nH]cnc3c2)O[C@@H]2O[C@]3(C)CC[C@H]4[C@H](C)CC[C@@H]1[C@@]24OO3
LC50 [1]: 362 µg/mL (≈ 844 µM) | IC50 (Plasmodium falciparum [2]): 6.96 nM

C[C@H]1[C@H](NC2CCOCC2)O[C@@H]2O[C@]3(C)CC[C@H]4[C@H](C)CC[C@@H]1[C@@]24OO3
ED90 (Plasmodium berghei [3]): 1.3 mg/kg | ED90 (Plasmodium yoelii [4]): 1.25 mg/kg | ED90 (Plasmodium yoelii [5]): 1.84 mg/kg | ED90 (Plasmodium berghei [6]): 0.18 mg/kg

CCCN(CC(=O)NC(=O)c1ccccc1)C(=O)CCN1C(=O)[C@H](C)[C@@H]2CC[C@@H](C)[C@@H]3CC[C@]4(C)OO[C@]32[C@H]1O4
Activity (Plasmodium falciparum [7]): 99% | Activity (Plasmodium falciparum [8]): 100% | Activity (Plasmodium falciparum [9]): 100%

C[C@H]1[C@H](N2CCS(=O)(=O)CC2)O[C@@H]2O[C@]3(C)CC[C@H]4[C@H](C)CC[C@@H]1[C@@]24OO3
IC50 (Plasmodium falciparum [10]): 0.9 nM | IC50 (Plasmodium falciparum [11]): 0.9 nM | IC50 (Plasmodium falciparum [12]): 1.1 nM | IC50 (Plasmodium falciparum [13]): 1.4 nM | IC50 (Plasmodium falciparum [14]): 0.5 nM | IC50 (Plasmodium falciparum [15]): 0.9 nM | IC50 (Plasmodium falciparum [16]): 42.4 nM | IC50 (Plasmodium falciparum [17]): 0.7 nM

C[C@H]1[C@H](CC(COC(=O)c2cc[n+]([O-])cc2)C[C@H]2O[C@@H]3O[C@]4(C)CC[C@H]5[C@H](C)CC[C@@H]([C@H]2C)[C@@]35OO4)O[C@@H]2O[C@]3(C)CC[C@H]4[C@H](C)CC[C@@H]1[C@@]24OO3 (stereo partly drawn)
ED50 (Plasmodium falciparum [18]): 0.8 mg/kg | EC50 (Plasmodium falciparum [19]): 0.53 nM | ED50 (Plasmodium falciparum [20]): 2 mg/kg

C[C@H]1[C@@H](OCCCNc2ccc([N+](=O)[O-])c3nonc23)O[C@@H]2O[C@]3(C)CC[C@H]4[C@H](C)CC[C@@H]1[C@@]24OO3
IC50 (Plasmodium falciparum [10]): 11.2 nM | IC50 (Plasmodium falciparum [13]): 19.6 nM | IC50 (Plasmodium falciparum [14]): 9.6 nM | IC50 (Plasmodium falciparum [15]): 22.6 nM | IC50 (Plasmodium falciparum [17]): 9.5 nM

C[C@H]1[C@H](NC2CCN(c3ncccn3)CC2)O[C@@H]2O[C@]3(C)CC[C@H]4[C@H](C)CC[C@@H]1[C@@]24OO3
ED90 (Plasmodium berghei [3]): 1.5 mg/kg | ED90 (Plasmodium yoelii [4]): 0.52 mg/kg | ED90 (Plasmodium yoelii [5]): 2 mg/kg | ED90 (Plasmodium berghei [6]): 0.46 mg/kg

C[C@@H]1CC[C@H]2[C@@H](C)C(=O)N(CCC(=O)N(CC(=O)NC(=O)c3ccccc3)C(C)(C)C)[C@@H]3O[C@]4(C)CC[C@@H]1[C@@]23OO4
Activity (Plasmodium falciparum [7]): 99% | Activity (Plasmodium falciparum [8]): 98% | Activity (Plasmodium falciparum [9]): 100%

CN1CCN(C2CCN(C(=O)CC3CCC4(CC3)OOC3(OO4)C4CC5CC(C4)CC3C5)CC2)CC1 (stereo not drawn)
ED90 (Plasmodium berghei [21]; Plasmodium berghei, ANKA): 4.18 mg/kg | ED50 (Plasmodium berghei [21]; Plasmodium berghei, ANKA, read-out: ED50): 1.33 mg/kg | IC50 (Plasmodium falciparum [2]): 0.8 nM

C[C@H]1[C@H](N2CCN(c3ccc(S(=O)(=O)N(C)C)c4nonc34)CC2)O[C@@H]2O[C@]3(C)CC[C@H]4[C@H](C)CC[C@@H]1[C@@]24OO3
IC50 (Plasmodium falciparum [10]): 16.4 nM | IC50 (Plasmodium falciparum [13]): 497 nM | IC50 (Plasmodium falciparum [14]): 249 nM | IC50 (Plasmodium falciparum [15]): 348 nM | IC50 (Plasmodium falciparum [17]): 13.5 nM

CO[C@H]1O[C@@H]2O[C@@]3(C)CC[C@H]4[C@H](C)CC[C@@H]([C@H]1C)[C@@]24OO3
ED50 (Plasmodium berghei [21]): 10.57 mg/kg | IC50 (Plasmodium falciparum [11]): 7 nM | ED50 (Plasmodium berghei [22]): 6 mg/kg | IC50 (Plasmodium falciparum [23]): 2 nM | IC50 (Plasmodium falciparum [24]): 9 nM

C[C@H]1[C@H](CC(C[C@H]2O[C@@H]3O[C@]4(C)CC[C@H]5[C@H](C)CC[C@@H]([C@H]2C)[C@@]35OO4)C(=O)O)O[C@@H]2O[C@]3(C)CC[C@H]4[C@H](C)CC[C@@H]1[C@@]24OO3 (stereo partly drawn)
ED50 (Plasmodium falciparum [18]): 0.8 mg/kg | EC50 (Plasmodium falciparum [19]): 2.4 nM | ED50 (Plasmodium falciparum [20]): 2 mg/kg

C[C@H]1[C@H](NC2CCN(Cc3ccccc3)CC2)O[C@@H]2O[C@]3(C)CC[C@H]4[C@H](C)CC[C@@H]1[C@@]24OO3
ED90 (Plasmodium berghei [3]): 2.4 mg/kg | ED90 (Plasmodium yoelii [4]): 0.85 mg/kg | ED90 (Plasmodium yoelii [5]): 3 mg/kg | ED90 (Plasmodium berghei [6]): 0.7 mg/kg

O=P1(N(CCCl)CCCl)NCCCO1 (stereo not drawn) [CYCLOPHOSPHAMIDE ANHYDROUS]
LC50 [1]: 1.08 µg/mL (≈ 4.14 µM)

C[C@H]1[C@H](OC(=O)CCCc2ccccc2)O[C@@H]2O[C@]3(C)CC[C@H]4[C@H](C)CC[C@@H]1[C@@]24OO3
LC50 [1]: 139 µg/mL (≈ 323 µM) | IC50 (Plasmodium falciparum [2]): 5.36 nM

C[C@@H]1CC[C@H]2[C@@H](C)C(=O)N(CCC(=O)N(CCO)CC(=O)NC(=O)c3ccccc3)[C@@H]3O[C@]4(C)CC[C@@H]1[C@@]23OO4
Activity (Plasmodium falciparum [7]): 99% | Activity (Plasmodium falciparum [8]): 78% | Activity (Plasmodium falciparum [9]): 100%

From ChEMBL document CHEMBL5244272 (Eur J Med Chem, 2021)
